Values quoted from earlier work, collected in patent US9398745B2, “Organic composition for protection of crops against black frost and the method for its application” (priority 2014, dated 2016).

Tested on: animals
Conditions: tests performed on animals

CC(O)CO (stereo not shown) [1,2 propanediol]
toxicity: low toxicity
